Each block holds one compound with its values, some of them ahead of it.
Tests used:
[1] = tested on: adhesion of intestinal epithelial cells (HT-29) and monocytic cells (U937) induced by TNF-α; assay: Inhibition of TNF-α-induced adhesion of monocytes and intestinal epithelial cells; format: cell-based, human; conditions: for inhibition at 1 µM: Homo sapiens, read-out: Inhibitory activity (%)
Description: HT-29 human colon cancer-derived epithelial cells and U937 human-derived monocytes were cultured in RPMI 1640 medium containing 10% FBS and 1% penicillin/streptomycin (PS) in a 37° C., 5% CO2 incubator. When the cells grew more than 80% of the bottom area of the culture flask, they were passaged at a ratio of 1:3 and used in this experiment. HT-29 cells were cultured in a 24-well plate at the density of 2×10^5 cells/cm^2, and the test drug was pretreated in a medium containing 1% FBS and 1% PS for 1 hour. Thereafter, 10 μg/mL of BCECF-AM was treated thereto and reacted at 37° C. for 30 minutes. U937 cells loaded with BCECF and TNF-α (10 ng/mL) were reacted with HT-29 cells previously treated with the test drug at 37° C. for 3 hours. Upon completion of the reaction, the medium was removed, and the culture flask was washed twice with PBS to remove non-adherent U937 cells. In the next step, the cells were lysed by treating with 0.1% Triton X-100 (0.1 M Tris) and reacted at room temperature for 30 minutes. Then, fluorescence was measured and quantified using a fluostar optima microplate reader (BMG Labtechnologies, Germany) (Carvalho et al., 1996; Thapa et al., 2008).

[2] = tested on: adhesion of intestinal epithelial cells (HT-29) and monocytic cells (U937) induced by IL-6; assay: Inhibition of IL-6-induced adhesion of monocytes and intestinal epithelial cells; format: cell-based, human; conditions: for inhibition at 1 µM: Homo sapiens, 3 h, test drug 1 μM, IL-6 10 ng/mL, HT-29/U937, read-out: inhibitory activity (%)
Description: The inhibitory activity test for intestinal epithelial cell-monocyte adhesion by IL-6 was performed using the same method as in the case of TNF-α. HT-29 cells were cultured in a 24-well plate at the density of 2×10^5 cells/cm^2, and the test drug was pretreated in a medium containing 1% FBS and 1% PS for 1 hour. Thereafter, 10 μg/mL of BCECF-AM was treated thereto and reacted at 37° C. for 30 minutes. U937 cells loaded with BCECF and IL-6 (10 ng/mL) were reacted with HT-29 cells previously treated with the test drug at 37° C. for 3 hours. Upon completion of the reaction, the medium was removed, and the culture flask was washed twice with PBS to remove non-adherent U937 cells. In the next step, the cells were lysed by treating with 0.1% Triton X-100 (0.1 M Tris) and reacted at room temperature for 30 minutes. Then, fluorescence was measured and quantified using a fluostar optima microplate reader (BMG Labtechnologies, Germany).

[3] = test drug 1 μM, TNF-α 10 ng/mL, HT-29/U937

- IC50 ([1]; inhibition of adhesion by TNF-α): 18.1 mM
- IC50 ([2]; inhibition of adhesion by IL-6): 25.1 mM
SMILES: Nc1ccc(O)c(C(=O)O)c1 [Compound 5-ASA, 5-ASA, reference compound]
- Inhibitory activity (%) [1, 3]: 3.8%

SMILES: Cc1nc(NC(=O)c2cc3ccccc3[nH]2)c(C)c(C)c1O [Compound X-01, N-(5-hydroxy-3,4,6-trimethylpyridin-2-yl)-1H-indole-2-carboxamide]
- inhibition at 1 µM [1, 3]: 43.2%
- inhibition at 1 µM [2]: 34%

SMILES: Cc1nc(NC(=O)c2cc3ccccc3n2C)c(C)c(C)c1O [Compound X-02, N-(5-hydroxy-3,4,6-trimethylpyridin-2-yl)-1-methyl-1H-indole-2-carboxamide]
- inhibition at 1 µM [1, 3]: 29.1%
- inhibition at 1 µM [2]: 21.1%

SMILES: Cc1nc(NC(=O)c2cc3cccc(Br)c3[nH]2)c(C)c(C)c1O [Compound X-03, 7-bromo-N-(5-hydroxy-3,4,6-trimethylpyridin-2-yl)-1H-indole-2-carboxamide]
- inhibition at 1 µM [1, 3]: 14.5%
- inhibition at 1 µM [2]: 5%

SMILES: Cc1nc(NC(=O)c2cc3ccc(Cl)cc3[nH]2)c(C)c(C)c1O [Compound X-04, 6-chloro-N-(5-hydroxy-3,4,6-trimethylpyridin-2-yl)-1H-indole-2-carboxamide]
- inhibition at 1 µM [1, 3]: 30.3%
- inhibition at 1 µM [2]: 25.1%

SMILES: Cc1nc(NC(=O)c2cc3ccc(Br)cc3[nH]2)c(C)c(C)c1O [Compound X-05, 6-bromo-N-(5-hydroxy-3,4,6-trimethylpyridin-2-yl)-1H-indole-2-carboxamide]
- inhibition at 1 µM [1, 3]: 7.5%
- inhibition at 1 µM [2]: 3.4%

SMILES: Cc1nc(NC(=O)c2cc3cc(F)ccc3[nH]2)c(C)c(C)c1O [Compound X-06, 5-fluoro-N-(5-hydroxy-3,4,6-trimethylpyridin-2-yl)-1H-indole-2-carboxamide]
- inhibition at 1 µM [1, 3]: 49.9%
- inhibition at 1 µM [2]: 42.9%

SMILES: Cc1nc(NC(=O)c2cc3cc(Cl)ccc3[nH]2)c(C)c(C)c1O [Compound X-08, 5-chloro-N-(5-hydroxy-3,4,6-trimethylpyridin-2-yl)-1H-indole-2-carboxamide]
- inhibition at 1 µM [1, 3]: 31%
- inhibition at 1 µM [2]: 21.3%

SMILES: Cc1nc(NC(=O)c2cc3cc(C(F)(F)F)ccc3[nH]2)c(C)c(C)c1O [Compound X-10, N-(5-hydroxy-3,4,6-trimethylpyridin-2-yl)-5-(trifluoromethyl)-1H-indole-2-carboxamide]
- inhibition at 1 µM [1, 3]: ≥ 50%
- inhibition at 1 µM [2]: 47.9%

SMILES: Cc1nc(NC(=O)c2cc3cc(OC(F)(F)F)ccc3[nH]2)c(C)c(C)c1O [Compound X-11, N-(5-hydroxy-3,4,6-trimethylpyridin-2-yl)-5-(trifluoromethoxy)-1H-indole-2-carboxamide]
- inhibition at 1 µM [1, 3]: 32.8%
- inhibition at 1 µM [2]: 24.2%

SMILES: COc1ccc2cc(C(=O)Nc3nc(C)c(O)c(C)c3C)[nH]c2c1 [Compound X-12, N-(5-hydroxy-3,4,6-trimethylpyridin-2-yl)-6-methoxy-1H-indole-2-carboxamide]
- inhibition at 1 µM [1, 3]: ≥ 50%
- inhibition at 1 µM [2]: 46%

SMILES: COc1ccc2[nH]c(C(=O)Nc3nc(C)c(O)c(C)c3C)cc2c1 [Compound X-13, N-(5-hydroxy-3,4,6-trimethylpyridin-2-yl)-5-methoxy-1H-indole-2-carboxamide]
- inhibition at 1 µM [1, 3]: 36.7%
- inhibition at 1 µM [2]: 23.4%

SMILES: COc1cc2cc(C(=O)Nc3nc(C)c(O)c(C)c3C)[nH]c2cc1OC [Compound X-14, N-(5-hydroxy-3,4,6-trimethylpyridin-2-yl)-5,6-dimethoxy-1H-indole-2-carboxamide]
- inhibition at 1 µM [1, 3]: 36.9%
- inhibition at 1 µM [2]: 29.5%

SMILES: Cc1nc(NC(=O)c2cc3ccccc3o2)c(C)c(C)c1O [Compound X-15, N-(5-hydroxy-3,4,6-trimethylpyridin-2-yl)benzofuran-2-carboxamide]
- inhibition at 1 µM [1, 3]: 4.8%
- inhibition at 1 µM [2]: 42.4%

SMILES: Cc1nc(NC(=O)c2cc3cc(Cl)ccc3o2)c(C)c(C)c1O [Compound X-16, 5-chloro-N-(5-hydroxy-3,4,6-trimethylpyridin-2-yl)benzofuran-2-carboxamide]
- inhibition at 1 µM [1, 3]: 25.1%
- inhibition at 1 µM [2]: 15.1%

SMILES: Cc1nc(NC(=O)c2cc3cc(Br)ccc3o2)c(C)c(C)c1O [Compound X-17, 5-bromo-N-(5-hydroxy-3,4,6-trimethylpyridin-2-yl)benzofuran-2-carboxamide]
- inhibition at 1 µM [1, 3]: 8.5%
- inhibition at 1 µM [2]: 3.6%

SMILES: COc1cccc2cc(C(=O)Nc3nc(C)c(O)c(C)c3C)oc12 [Compound X-18, N-(5-hydroxy-3,4,6-trimethylpyridin-2-yl)-7-methoxybenzofuran-2-carboxamide]
- inhibition at 1 µM [1, 3]: ≥ 50%
- inhibition at 1 µM [2]: 48.8%

SMILES: Cc1nc(NC(=O)c2oc3ccccc3c2C)c(C)c(C)c1O [Compound X-19, N-(5-hydroxy-3,4,6-trimethylpyridin-2-yl)-3-methylbenzofuran-2-carboxamide]
- inhibition at 1 µM [1, 3]: 25.1%
- inhibition at 1 µM [2]: 18.7%

SMILES: Cc1nc(NC(=O)c2cc3ccccc3s2)c(C)c(C)c1O [Compound X-20, N-(5-hydroxy-3,4,6-trimethylpyridin-2-yl)benzo[b]thiophene-2-carboxamide]
- inhibition at 1 µM [1, 3]: 16.5%
- inhibition at 1 µM [2]: 27%

SMILES: Cc1nc(NC(=O)c2sc3ccccc3c2Cl)c(C)c(C)c1O [Compound X-21, 3-chloro-N-(5-hydroxy-3,4,6-trimethylpyridin-2-yl)benzo[b]thiophene-2-carboxamide]
- inhibition at 1 µM [1, 3]: 13.4%
- inhibition at 1 µM [2]: 11.4%

SMILES: Cc1nc(NC(=O)c2sc3ccccc3c2Br)c(C)c(C)c1O [Compound X-22, 3-bromo-N-(5-hydroxy-3,4,6-trimethylpyridin-2-yl)benzo[b]thiophene-2-carboxamide]
- inhibition at 1 µM [1, 3]: 26.8%
- inhibition at 1 µM [2]: 19.7%

SMILES: Cc1ccc2c(Cl)c(C(=O)Nc3nc(C)c(O)c(C)c3C)sc2c1 [Compound X-23, 3-chloro-N-(5-hydroxy-3,4,6-trimethylpyridin-2-yl)-6-methylbenzo[b]thiophene-2-carboxamide]
- inhibition at 1 µM [1, 3]: 9.1%
- inhibition at 1 µM [2]: 8.7%

SMILES: Cc1nc(NC(=O)c2sc3cc(Cl)ccc3c2Cl)c(C)c(C)c1O [Compound X-25, 3,6-dichloro-N-(5-hydroxy-3,4,6-trimethylpyridin-2-yl)benzo[b]thiophene-2-carboxamide]
- inhibition at 1 µM [1, 3]: 19.5%
- inhibition at 1 µM [2]: 9%

SMILES: COc1ccc2c(Cl)c(C(=O)Nc3nc(C)c(O)c(C)c3C)sc2c1 [Compound X-26, 3-chloro-N-(5-hydroxy-3,4,6-trimethylpyridin-2-yl)-6-methoxybenzo[b]thiophene-2-carboxamide]
- inhibition at 1 µM [1, 3]: 45.1%
- inhibition at 1 µM [2]: 38.4%

SMILES: COc1c(C)nc(NC(=O)c2sc3cc(F)ccc3c2Cl)c(C)c1C [XI-01, 3-chloro-6-fluoro-N-(5-methoxy-3,4,6-trimethylpyridin-2-yl)benzo[b]thiophene-2-carboxamide]
- inhibition at 1 µM [1, 3]: 9.3%
- inhibition at 1 µM [2]: 4.7%

SMILES: COc1c(C)nc(N(C)C(=O)c2sc3cc(F)ccc3c2Cl)c(C)c1C [XI-02, 3-chloro-6-fluoro-N-(5-methoxy-3,4,6-trimethylpyridin-2-yl)-N-methylbenzo[b]thiophene-2-carboxamide]
- inhibition at 1 µM [1, 3]: 18.5%
- inhibition at 1 µM [2]: 10.9%

SMILES: Cc1nc(NC(=O)c2sc3cc(F)ccc3c2Cl)c(C)c(C)c1OCC(=O)NC(C)C [XI-03, 3-chloro-6-fluoro-N-(5-(2-(isopropylamino)-2-oxoethoxy)-3,4,6-trimethylpyridin-2-yl)benzo[b]thiophene-2-carboxamide]
- inhibition at 1 µM [1, 3]: ≥ 50%
- inhibition at 1 µM [2]: 49.9%

SMILES: Cc1nc(NC(=O)c2sc3cc(F)ccc3c2Cl)c(C)c(C)c1OCC(=O)NC1CC1 [XI-04, 3-chloro-N-(5-(2-(cyclopropylamino)-2-oxoethoxy)-3,4,6-trimethylpyridin-2-yl)-6-fluorobenzo[b]thiophene-2-carboxamide]
- inhibition at 1 µM [1, 3]: 13.9%
- inhibition at 1 µM [2]: 6.5%

SMILES: Cc1nc(NC(=O)c2sc3cc(F)ccc3c2Cl)c(C)c(C)c1OCC(=O)NC1CCCCC1 [XI-05, 3-chloro-N-(5-(2-(cyclohexylamino)-2-oxoethoxy)-3,4,6-trimethylpyridin-2-yl)-6-fluorobenzo[b]thiophene-2-carboxamide]
- inhibition at 1 µM [1, 3]: 25.5%
- inhibition at 1 µM [2]: 14.5%

SMILES: Cc1nc(NC(=O)c2sc3cc(F)ccc3c2Cl)c(C)c(C)c1OCC(=O)NCc1ccccc1 [XI-06, N-(5-(2-(benzylamino)-2-oxoethoxy)-3,4,6-trimethylpyridin-2-yl)-3-chloro-6-fluorobenzo[b]thiophene-2-carboxamide]
- inhibition at 1 µM [1, 3]: ≥ 50%
- inhibition at 1 µM [2]: 54.1%

— patent US12398117B2, “Heteroarylamidopyridinol derivative and pharmaceutical composition comprising same as active ingredient for prevention or treatment of autoimmune disease” (INNOVO THERAPEUTICS INC., priority 2019, dated 2025)
